Measured values as given in paper PMC4300529 (Anesthesiology, 2015).

What was measured:
mice [1] = experiment: Loss-of-righting reflex anesthetic potency assay in mice; assay type: in vivo, mice (C57BL/6J)
Xenopus tadpoles = experiment: Xenopus tadpole anesthetic activity; assay type: in vivo, Xenopus laevis
[2] = pharmacokinetic profiling; assay type: in vivo; conditions: data not shown
mice [3] = conditions: previously reported; cited from earlier work
apoferritin = apoferritin (Equus caballus, UniProt P02791); experiment: biochemical
apoferritin, sequence (P02791 2-175 limits assumed): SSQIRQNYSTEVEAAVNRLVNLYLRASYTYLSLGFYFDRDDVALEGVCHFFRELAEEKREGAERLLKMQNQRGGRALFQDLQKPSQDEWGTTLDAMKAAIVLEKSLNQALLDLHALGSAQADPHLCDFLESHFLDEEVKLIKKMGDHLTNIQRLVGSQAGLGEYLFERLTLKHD

| Compound | mean duration of LoRR (mice [1]; 100 mg/kg iv) [s] | onset of LoRR (mice [1]; intravenous, doses roughly twice that of propofol (moles per kilogram)) [s] | LogED50 for LoRR (mice [1]; iv injection, unit printed only with the propofol value of the same legend) [mmol/kg] | anesthetic activity / potency in tadpoles (immobility), in words (Xenopus tadpoles; tadpole immobility after 60 minutes exposure, SAR statements to figs 4-6) | pharmacokinetic profile (uptake, distribution, elimination) [2] | duration of LoRR (mice [1]; 20 mg/kg (0.11 mmol/kg)) | logED50 in mice (mice [3]) [mmol/kg] | IC50 (apoferritin) [µM] | toxicity in tadpoles at 100 μM (Xenopus tadpoles; 100 μM) |
| --- | --- | --- | --- | --- | --- | --- | --- | --- | --- |
| Cc1ccc(-c2ccc(=O)n(CC(=O)NCCc3ccccc3)n2)cc1 [compound 5] | 245 ± 65 | < 20 | −0.761 | optimal anesthetic activity | did not show any remarkable patterns of uptake, distribution, or elimination |  |  |  |  |
| CC(C)c1cccc(C(C)C)c1O [propofol, reference compound] |  |  |  |  |  | 445 ± 27 | −1.03 | 23 | produced death at 100 μM |
